Assay results taken from patent US11884682B2, “Compounds and their uses as MIF inhibitors” (NANJING IMMUNOPHAGE BIOTECH CO., LTD., priority 2020, dated 2024).

Key:
MIF = MIF (Homo sapiens (Human), UniProt P14174); experiment: MIF tautomerase assay using pHPP as substrate; type: biochemical; details: cell-free, pHPP substrate 1.5 mM, MIF 3 nM; mean pIC50 of multiple test results
Procedure: Tautomerase Assay Using pHPP as substrate
This assay measured MIF's tautomerase activity in a cell-free system and was based on the determination of initial rates of the MIF-catalyzed conversion of the ketonic into the enolic tautomer of pHPP. This was achieved by spectrophotometric quantification of the complex between borate and the product of the reaction (enolic pHPP). The substrate was prepared by conversion of the enolic pHPP into its ketonic form. To achieve this, 0.5 M pHPP in methanol was diluted 10-fold with 50 mM sodium acetate buffer at pH 6.0, and then the suspension was shaken for 24 h at room temperature in darkness, and finally stored at 4° C. for not more than 1 week, with 5 min sonication being recommended before use.
Assays were performed in small-volume clear-bottom black 96 or 384-well polystyrene plates (Greiner Bio-One). First, 2 μL of the enzyme solution containing 6 nM of MIF in DPBS, 0.025% w/v BSA, and 300 μM CHAPS was dispensed onto sample and negative control wells using Multidrop Combi with metallic tip cassettes (Thermo Fisher Scientific) previously treated with Sigmacote. Then, 2 μL of the same buffer without MIF was dispensed onto positive control wells. The reaction was started by addition of the following to all wells: 2 μL of substrate solution containing 3 mM ketonic pHPP in 200 mM boric acid, 25 mM sodium phosphate, 0.025% w/v BSA, and 300 μM CHAPS at pH 6.0. In order to remove bubbles, the plate was centrifuged in an Allegra 25R centrifuge (Beckman Coulter, Inc., Brea, CA) at 1000 rpm for 2 min at room temperature. Then, the plate was read in an EnVision. Final concentrations of enzyme and substrate were 3 nM and 1.5 mM, respectively. Initial rates were calculated for each well as the slope of the absorbance progress curve.
(§1) The data mentioned below represents a mean pIC50 value of multiple test results. It is understood that the data illustrated below may have reasonable variation depending on the specific conditions and procedures used by the person conducting the testing.

BV2 cells = experiment: BV2 cell proliferation assay (CCK-8); type: cell-based; details: Mus musculus, BV-2, 48 h treatment, CCK-8, top concentration 33.3 μM, mean pIC50 of multiple test results, read-out: BV2 Profileration pIC50 (converted)
Text: (§2) The assay measures the ability of a compound to inhibit cell proliferation using Cell Counting Kit-8 (CCK-8), which allows sensitive colorimetric assays for the determination of cell viability in cell proliferation and cytotoxicity assays. The highly water-soluble tetrazolium salt, WST-8, is reduced by dehydrogenase activities in cells to give a yellow-color formazan dye, which is soluble in the tissue culture media. The amount of the formazan dye, generated by the activities of dehydrogenases in cells, is directly proportional to the number of living cells.
(§3) The assay was performed based on the instruction of the manufacturer (Dojindo Molecular Technologies Inc., Rockville, MD, USA). To start the assay, BV2 cells were seeded at a density of […] into 96-well plates and treated with test compounds, which were used at a top final assay concentration of 33.3 μM, diluted in assay medium with 1:3 dilutions to produce 10 point concentration responses, for 48 h. After incubation, the CCK-8 solution (10 μl) was added to each well of the plate and the plates were incubated in incubator at 37° C. for 3 h. Absorbance was recorded three times independently using a microplate reader (Bio-Rad Laboratories, Richmond, CA, USA) at 450 nm.
as §1, with “Selected examples were tested in the BV2 cell proliferation. The” for “The”

U251 cell = U251 cell proliferation assay (CCK-8); type: cell-based; details: Homo sapiens, U-251; U251 cells; read-out: U251 Profileration pIC50 (converted)
Text: [The source words this procedure for another cell line and reports this cell line under the same test.] as §2, §3

MIF, sequence (P14174 2-115): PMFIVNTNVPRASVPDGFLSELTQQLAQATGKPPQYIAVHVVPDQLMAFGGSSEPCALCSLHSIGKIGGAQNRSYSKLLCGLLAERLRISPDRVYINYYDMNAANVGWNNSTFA

Row | SMILES | Tautomerase Inhibition pIC50 (MIF) | IC50 (U251 cell) [µM] | IC50 (BV2 cells) [µM]
1 | O=C1c2ccc(Br)cc2CCN1Cc1nnc(-c2cccs2)o1 [Compound 73, 6-bromo-2-((5-(thiophen-2-yl)-1,3,4-oxadiazol-2-yl)methyl)-3,4-dihydroisoquinolin-1(2H)-one] | <5 | > 1000 | 23.4
2 | O=C1c2ccccc2CCN1Cc1nnc(-c2cccs2)o1 [Compound 72, 2-((5-(thiophen-2-yl)-1,3,4-oxadiazol-2-yl)methyl)-3,4-dihydroisoquinolin-1(2H)-one] | <5 | > 1000 | 123
3 | COc1cc(OC(C)(C)C(=O)O)ccc1C(=O)Nc1nnc(-c2cccs2)o1 [Compound 21, 2-(3-methoxy-4-((5-(thiophen-2-yl)-1,3,4-oxadiazol-2-yl)carbamoyl)phenoxy)-2-methyl propanoic acid] | – | > 1000 | > 1000
4 | COc1cccc(OC)c1C(=O)NCc1nnc(-c2cccs2)o1 [Compound 46, 2,6-dimethoxy-N-((5-(thiophen-2-yl)-1,3,4-oxadiazol-2-yl)methyl)benzamide] | 3.70 | > 1000 | > 1000
5 | COc1cc(OCC(=O)O)ccc1C(=O)Nc1nnc(-c2cccs2)o1 [Compound 19, 2-(3-methoxy-4-((5-(thiophen-2-yl)-1,3,4-oxadiazol-2-yl)carbamoyl)phenoxy)acetic acid] | – | > 1000 | > 1000
6 | COc1ccc(C(=O)Nc2nnc(-c3ccco3)o2)c(Cl)c1 [Compound 1, 2-chloro-N-(5-(furan-2-yl)-1,3,4-oxadiazol-2-yl)-4-methoxybenzamide] | <5 | – | –
7 | COc1cc(C2=CCC(C(=O)O)CC2)ccc1C(=O)Nc1nnc(-c2cccs2)o1 (stereo not shown) [Compound 29, 3′-methoxy-4′-((5-(thiophen-2-yl)-1,3,4-oxadiazol-2-yl)carbamoyl)-2,3,4,5-tetrahydro-[1,1′-biphenyl]-4-carboxylic acid] | 8.14 | – | –
8 | COc1cc(OCCOCc2ccccc2)ccc1C(=O)Nc1nnc(-c2cccs2)o1 [Compound 18, 4-(2-(benzyloxy)ethoxy)-2-methoxy-N-(5-(thiophen-2-yl)-1,3,4-oxadiazol-2-yl)benzamide] | 7.63 | – | –
9 | COc1cnccc1C(=O)NCc1nnc(-c2cccs2)o1 [Compound 47, 3-methoxy-N-((5-(thiophen-2-yl)-1,3,4-oxadiazol-2-yl)methyl)isonicotinamide] | <5 | – | –
10 | O=C(NCc1nnc(-c2cccs2)o1)c1ccccc1Cl [Compound 43, 2-chloro-N-((5-(thiophen-2-yl)-1,3,4-oxadiazol-2-yl)methyl)benzamide] | 5.09 | – | –
11 | O=C(NCc1nnc(-c2cccs2)o1)c1c(F)cccc1F [Compound 45, 2,6-difluoro-N-((5-(thiophen-2-yl)-1,3,4-oxadiazol-2-yl)methyl)benzamide] | <5 | – | –
12 | O=C(NCc1nnc(-c2cccs2)o1)c1ccccc1O [Compound 42, 2-hydroxy-N-((5-(thiophen-2-yl)-1,3,4-oxadiazol-2-yl)methyl)benzamide] | 3.10 | – | –
13 | COc1ccc(C(=O)Nc2nnc(-c3ccccc3)o2)c(OC)c1 [Compound 2, 2,4-dimethoxy-N-(5-phenyl-1,3,4-oxadiazol-2-yl)benzamide] | 5.07 | – | –

Now from value to compound, other results behind:

Row | Tautomerase Inhibition pIC50 (MIF) | IC50 (U251 cell) [µM] | SMILES | IC50 (BV2 cells) [µM]
14 | 5.66 | > 1000 | CNCCNc1ccc(C(=O)NCc2nnc(-c3cccs3)o2)c(OC)c1 [Compound 77, 2-methoxy-4-((2-(methylamino)ethyl)amino)-N-((5-(thiophen-2-yl)-1,3,4-oxadiazol-2-yl)methyl)benzamide] | > 1000
15 | 5.90 | > 1000 | COc1cc(N2CCN(C)CC2)ccc1C(=O)NCc1nnc(-c2cccs2)o1 [Compound 59, 2-methoxy-4-(4-methylpiperazin-1-yl)-N-((5-(thiophen-2-yl)-1,3,4-oxadiazol-2-yl)methyl)benzamide] | 40.7
16 | – | > 1000 | CNCCOc1ccc(C(=O)NCc2nnc(-c3cccs3)o2)c(OC)c1 [Compound 80, 2-methoxy-4-(2-(methylamino)ethoxy)-N-((5-(thiophen-2-yl)-1,3,4-oxadiazol-2-yl)methyl)benzamide] | 26.3
17 | <5 | > 1000 | O=C1c2ccc(N3CCOCC3)cc2CCN1Cc1nnc(-c2cccs2)o1 [Compound 74, 6-morpholino-2-((5-(thiophen-2-yl)-1,3,4-oxadiazol-2-yl)methyl)-3,4-dihydroisoquinolin-1(2H)-one] | 25.1
18 | 6.04 | > 1000 | COc1cc(CC(C)(C)O)ccc1C(=O)NCc1nnc(-c2cccs2)o1 [Compound 84, 4-(2-hydroxy-2-methylpropyl)-2-methoxy-N-((5-(thiophen-2-yl)-1,3,4-oxadiazol-2-yl)methyl)benzamide] | 41.7
19 | – | > 1000 | COc1cc(OCCN2CCOCC2)ccc1C(=O)NCc1nnc(-c2cccs2)o1 [Compound 69, 2-methoxy-4-(2-morpholinoethoxy)-N-((5-(thiophen-2-yl)-1,3,4-oxadiazol-2-yl)methyl)benzamide] | 44.7
20 | – | 35.5 | COc1cc(OC2CCNC2)ccc1C(=O)NCc1nnc(-c2cccs2)o1 (stereo not shown) [Compound 81, 2-methoxy-4-(pyrrolidin-3-yloxy)-N-((5-(thiophen-2-yl)-1,3,4-oxadiazol-2-yl)methyl)benzamide] | > 1000
21 | 5.53 | > 1000 | COc1cc(OC2CCN(C)C2)ccc1C(=O)NCc1nnc(-c2cccs2)o1 (stereo not shown) [Compound 82, 2-methoxy-4-((1-methylpyrrolidin-3-yl)oxy)-N-((5-(thiophen-2-yl)-1,3,4-oxadiazol-2-yl)methyl)benzamide] | > 1000
22 | 5.95 | > 1000 | COc1cc(N2CCNCC2)ccc1C(=O)NCc1nnc(-c2cccs2)o1 [Compound 58, 2-methoxy-4-(piperazin-1-yl)-N-((5-(thiophen-2-yl)-1,3,4-oxadiazol-2-yl)methyl)benzamide] | 35.5
23 | – | > 1000 | COc1cc(N2CCC(O)C2)ccc1C(=O)NCc1nnc(-c2cccs2)o1 (stereo not shown) [Compound 78, 4-(3-hydroxypyrrolidin-1-yl)-2-methoxy-N-((5-(thiophen-2-yl)-1,3,4-oxadiazol-2-yl)methyl)benzamide] | 79.4
24 | – | > 1000 | COc1cc(C(C)(C)O)ccc1C(=O)NCc1nnc(-c2cccs2)o1 [Compound 83, 4-(2-hydroxypropan-2-yl)-2-methoxy-N-((5-(thiophen-2-yl)-1,3,4-oxadiazol-2-yl)methyl)benzamide] | > 1000
25 | – | > 1000 | COc1cc(NCCO)ccc1C(=O)NCc1nnc(-c2cccs2)o1 [Compound 79, 4-((2-hydroxyethyl)amino)-2-methoxy-N-((5-(thiophen-2-yl)-1,3,4-oxadiazol-2-yl)methyl)benzamide] | > 1000
26 | 4.79 | – | COc1cc(N2CCOCC2)ccc1C(=O)NCc1nnc(-c2ccc(Cl)s2)o1 [Compound 64, N-((5-(5-chlorothiophen-2-yl)-1,3,4-oxadiazol-2-yl)methyl)-2-methoxy-4-morpholinobenzamide] | –
